Laboratory results as given in patent US10239851B2 (priority 2014, dated 2019).
Read-outs that look alike come from different tables or passages of the source.

Assays:
[1] = In vitro dissociation of the water soluble taxane derivatives in blood plasma of rat; format: in vitro ADME, SD rats; settings: 37° C.
Method: The obtained water soluble taxane derivatives were formulated as 0.2 mg/ml aqueous solutions. […] After 2 min, 5 min and 10 min of incubation, 0.2 ml of solutions were respectively taken from each of the samples, and added to acetonitrile (0.4 ml) cooled to −20° C. for precipitation of protein.

[2] = system: human prostate cancer PC-3; settings: for Tumor volume (mm^3) (D0): D0 (baseline at grouping)
Source text: Test of the inhibitory activity of the water soluble cabazitaxel derivatives on subcutaneously xenografted tumor of human prostate cancer PC-3 in nude mice: evaluating and comparing the inhibitory activity of the water soluble cabazitaxel derivatives and cabazitaxel on subcutaneously xenografted tumor of human prostate cancer PC-3 in nude mice.
Human prostate cancer PC-3 cells were subcutaneously inoculated into nude mice. After the tumor volume reached 100-150 mm^3, the animals were randomly divided into several groups, and administered with the water soluble cabazitaxel derivatives of the present invention and cabazitaxel, respectively once on the same day (D0). The tumor volume was measured 2-3 times per week, the animals were weighed and the data were recorded until day 20 (D20) after grouping.
(§1) The tumor volume (V) was calculated according to the equation: V=½×a×b^2, wherein a and b represent the length and the width, respectively.
(§2) T/C (%)=(T−T0)/(C−C0)×100, wherein T and C represent the tumor volume at the end of the experiment; and T0 and C0 represent the tumor volume at the beginning of the experiment.

[3] = In vitro dissociation of the water soluble taxane derivatives in blood plasma of rabbit; format: in vitro ADME, New Zealand white rabbits; settings: 37° C.
Method: The obtained water soluble taxane derivatives were formulated as 0.2 mg/ml aqueous solutions. […] After 5 min, 20 min and 60 min of incubation, 0.2 ml of solutions were respectively taken from each of the samples, and added to acetonitrile (0.4 ml) cooled to −20° C. for precipitation of protein.

[4] = system: human prostate cancer PC-3; settings: PC-3 xenograft, nude mice, 33.6 mg/kg, D0 IV, single dose; for Tumor volume (mm^3) (D0): D0 (baseline at grouping); for Tumor inhibitory percent (%) D20: P(D20)=0.000 vs control
Source text: Test of the inhibitory activity of the water soluble docetaxel derivatives on subcutaneously xenografted tumor of human prostate cancer PC-3 in nude mice: evaluating and comparing the inhibitory activity of the water soluble docetaxel derivatives and docetaxel on subcutaneously xenografted tumor of human prostate cancer PC-3 in nude mice.
Human prostate cancer PC-3 cells were subcutaneously inoculated into nude mice. After the tumor volume reached 100-150 mm^3, the animals were randomly divided into several groups, and administered with the water soluble docetaxel derivatives of the present invention and docetaxel, respectively once on the same day (D0). The tumor volume was measured 2-3 times per week, the animals were weighed and the data were recorded until day 20 (D20) after grouping.
as §1, §2

[5] = PC-3 xenograft, nude mice, 13 mg/kg, D0 IV, single dose
[6] = PC-3 xenograft, nude mice, 7 mg/kg, D0 IV, single dose
[7] = PC-3 xenograft, nude mice, 13 mg/kg, D0 IV, single dose, D6

Compound: CO[C@H]1C(=O)[C@]2(C)[C@@H](OC)C[C@H]3OC[C@@]3(OC(C)=O)[C@H]2[C@H](OC(=O)c2ccccc2)[C@]2(O)C[C@H](OC(=O)[C@H](OC(=O)[C@@H](F)CCN(C)C)[C@@H](NC(=O)OC(C)(C)C)c3ccccc3)C(C)=C1C2(C)C.CS(=O)(=O)O [Compound C8, 2′-O-[4-(N,N-dimethyl)amino-2(S)-fluorobutyryl]cabazitaxel methanesulfonate]
- dissociation percent ([1]; 2 min): 49.4%
- dissociation percent ([1]; 5 min): 88.4%
- dissociation percent ([1]; 10 min): 100%
- T/C (%) D20 [2, 5]: −66%
- dissociation percent ([3]; 5 min): 85.6%
- dissociation percent ([3]; 20 min): 94.5%
- dissociation percent ([3]; 60 min): 100%

Compound: CC(=O)O[C@@]12CO[C@@H]1C[C@H](O)[C@@]1(C)C(=O)[C@H](O)C3=C(C)[C@@H](OC(=O)[C@H](OC(=O)[C@@H](F)CCCCN(C)C)[C@@H](NC(=O)OC(C)(C)C)c4ccccc4)C[C@@](O)([C@@H](OC(=O)c4ccccc4)[C@H]21)C3(C)C.O=S(=O)(O)O [Compound 29, 2′-O-[6-(N,N-dimethyl)amino-2(S)-fluorohexanoyl]docetaxel sulfate]
- Tumor volume (mm^3) (D0) [4]: 114.7 ± 3.5 mm^3
- Weight change (%) D6 [4]: −15.8%
- T/C (%) D20 [4]: −20%
- Tumor volume (mm^3) (D20) [4]: 52.4 ± 12.5 mm^3
- Tumor inhibitory percent (%) D20 [4]: 45%

Compound: CO[C@H]1C(=O)[C@]2(C)[C@@H](OC)C[C@H]3OC[C@@]3(OC(C)=O)[C@H]2[C@H](OC(=O)c2ccccc2)[C@]2(O)C[C@H](OC(=O)[C@H](O)[C@@H](NC(=O)OC(C)(C)C)c3ccccc3)C(C)=C1C2(C)C [cabazitaxel, reference compound]
- Tumor volume (mm^3) (D0) [2, 6]: 111.7 ± 1.8 mm^3
- T/C (%) D20 [2, 6]: −27%
- Tumor inhibitory percent (%) D20 [2, 6]: 127%
- Tumor volume (mm^3) (D20) [2, 6]: 79.9 ± 24.8 mm^3
- Weight change (%) D6 ([2]; mouse, in vivo, iv, 7 mg/kg): −13.8%

Compound: CCN(CC)CCC(F)C(=O)OC(C(=O)OC1CC2(O)C(OC(=O)c3ccccc3)C3C4(OC(C)=O)COC4CC(O)C3(C)C(=O)C(O)C(=C1C)C2(C)C)C(NC(=O)OC(C)(C)C)c1ccccc1.O=C(O)C=CC(=O)O [Compound 24, 2′-O-[4-(N,N-diethyl)amino-2(S)-fluorobutyryl]docetaxel maleate]
- T/C (%) D20 [4]: −52%
- Tumor inhibitory percent (%) D20 [4]: 120%

Compound: CC(=O)O[C@@]12CO[C@@H]1C[C@H](O)[C@@]1(C)C(=O)[C@H](O)C3=C(C)[C@@H](OC(=O)[C@H](OC(=O)C(CCN(C)C)C(F)F)[C@@H](NC(=O)OC(C)(C)C)c4ccccc4)C[C@@](O)([C@@H](OC(=O)c4ccccc4)[C@H]21)C3(C)C.Cl (stereo partly drawn) [Compound 27, 2′-O-[4-(N,N-dimethyl)amino-2(R,S)-2-difluoromethylbutyryl]docetaxel hydrochloride]
- T/C (%) D20 [4]: −37%
- Tumor inhibitory percent (%) D20 [4]: 85%

Compound: CO[C@H]1C(=O)[C@]2(C)[C@@H](OC)C[C@H]3OC[C@@]3(OC(C)=O)[C@H]2[C@H](OC(=O)c2ccccc2)[C@]2(O)C[C@H](OC(=O)[C@H](OC(=O)[C@H](F)CCN(C)C(C)C)[C@@H](NC(=O)OC(C)(C)C)c3ccccc3)C(C)=C1C2(C)C.Cl [Compound 32, 2′-O-[4-(N-methyl-N-isopropyl)amino-2(R)-fluorobutyryl]cabazitaxel hydrochloride]
- T/C (%) D20 [2, 5]: −45%

Compound: CO[C@H]1C(=O)[C@]2(C)[C@@H](OC)C[C@H]3OC[C@@]3(OC(C)=O)[C@H]2[C@H](OC(=O)c2ccccc2)[C@]2(O)C[C@H](OC(=O)[C@H](OC(=O)[C@H](F)CCCCN(C)C)[C@@H](NC(=O)OC(C)(C)C)c3ccccc3)C(C)=C1C2(C)C.O=S(=O)(O)O [Compound 36, 2′-O-[6-(N,N-dimethyl)amino-2(R)-fluorohexanoyl]cabazitaxel sulfate]
- Tumor volume (mm^3) (D0) [2, 5]: 111.9 ± 3.7 mm^3
- Weight change (%) D6 [2, 7]: −16.8%
- T/C (%) D20 [2, 5]: −20%
- Tumor inhibitory percent (%) D20 [2, 5]: 46%
- Tumor volume (mm^3) (D20) [2, 5]: 66.8 ± 12.4 mm^3

Compound: CO[C@H]1C(=O)[C@]2(C)[C@@H](OC)C[C@H]3OC[C@@]3(OC(C)=O)[C@H]2[C@H](OC(=O)c2ccccc2)[C@]2(O)C[C@H](OC(=O)[C@H](OC(=O)C(F)CCN(C)C)[C@@H](NC(=O)OC(C)(C)C)c3ccccc3)C(C)=C1C2(C)C.CS(=O)(=O)O (stereo partly drawn) [Compound C9, 2′-O-[4-(N,N-dimethyl)amino-2(R,S)-fluorobutyryl] cabazitaxel methanesulfonate]
- dissociation percent ([1]; 2 min): 49.3%
- dissociation percent ([1]; 5 min): 88.6%
- dissociation percent ([1]; 10 min): 100%
- T/C (%) D20 [2, 5]: −66%
- dissociation percent ([3]; 5 min): 81.2%
- dissociation percent ([3]; 20 min): 96.7%
- dissociation percent ([3]; 60 min): 100%

Compound: CO[C@H]1C(=O)[C@]2(C)[C@@H](OC)C[C@H]3OC[C@@]3(OC(C)=O)[C@H]2[C@H](OC(=O)c2ccccc2)[C@]2(O)C[C@H](OC(=O)[C@H](OC(=O)[C@@H](CCN(C)C)C(F)F)[C@@H](NC(=O)OC(C)(C)C)c3ccccc3)C(C)=C1C2(C)C.Cc1ccc(S(=O)(=O)O)cc1 [Compound 34, 2′-O-[4-(N,N-dimethyl)amino-2(R)-2-difluoromethylbutyryl] cabazitaxel p-toluene sulfonate]
- Tumor volume (mm^3) (D0) [2, 5]: 116.7 ± 3.9 mm^3
- Weight change (%) D6 [2, 7]: −16.1%
- T/C (%) D20 [2, 5]: −37%
- Tumor inhibitory percent (%) D20 [2, 5]: 85%
- Tumor volume (mm^3) (D20) [2, 5]: 48.4 ± 14.7 mm^3

Compound: CC(=O)O[C@@]12CO[C@@H]1C[C@H](O)[C@@]1(C)C(=O)[C@H](O)C3=C(C)[C@@H](OC(=O)[C@H](OC(=O)[C@H](F)CCN(C)C(C)C)[C@@H](NC(=O)OC(C)(C)C)c4ccccc4)C[C@@](O)([C@@H](OC(=O)c4ccccc4)[C@H]21)C3(C)C.Cl [Compound 25, 2′-O-[4-(N-methyl-N-isopropyl)amino-2(R)-fluorobutyryl]docetaxel hydrochloride]
- T/C (%) D20 [4]: −44%

Compound: CO[C@H]1C(=O)[C@]2(C)[C@@H](OC)C[C@H]3OC[C@@]3(OC(C)=O)[C@H]2[C@H](OC(=O)c2ccccc2)[C@]2(O)C[C@H](OC(=O)[C@H](OC(=O)[C@H](F)CCN(C)C)[C@@H](NC(=O)OC(C)(C)C)c3ccccc3)C(C)=C1C2(C)C.CS(=O)(=O)O [Compound C7, 2′-O-[4-(N,N-dimethyl)amino-2(R)-fluorobutyryl]cabazitaxel methanesulfonate]
- dissociation percent ([1]; 2 min): 49.7%
- dissociation percent ([1]; 5 min): 88.9%
- dissociation percent ([1]; 10 min): 100%
- T/C (%) D20 [2, 5]: −67%
- dissociation percent ([3]; 5 min): 78.4%
- dissociation percent ([3]; 20 min): 94.8%
- dissociation percent ([3]; 60 min): 100%

Compound: CO[C@H]1C(=O)[C@]2(C)[C@@H](OC)C[C@H]3OC[C@@]3(OC(C)=O)[C@H]2[C@H](OC(=O)c2ccccc2)[C@]2(O)C[C@H](OC(=O)[C@H](OC(=O)[C@@H](CCN(C)C)C(F)(F)F)[C@@H](NC(=O)OC(C)(C)C)c3ccccc3)C(C)=C1C2(C)C.CS(=O)(=O)O [Compound 33, 2′-O-[4-(N,N-dimethyl)amino-2(R)-2-trifluoromethylbutyryl]cabazitaxel methanesulfonate]
- T/C (%) D20 [2, 5]: −46%

Compound: CCN(C)CCC(F)C(=O)OC(C(=O)OC1CC2(O)C(OC(=O)c3ccccc3)C3C4(OC(C)=O)COC4CC(O)C3(C)C(=O)C(O)C(=C1C)C2(C)C)C(NC(=O)OC(C)(C)C)c1ccccc1.CS(=O)(=O)O [Compound 23, 2′-O-[4-(N-methyl-N-ethyl)amino-2(R)-fluorobutyryl]docetaxel methanesulfonate]
- T/C (%) D20 [4]: −62%

Compound: CC(=O)O[C@@]12CO[C@@H]1C[C@H](O)[C@@]1(C)C(=O)[C@H](O)C3=C(C)[C@@H](OC(=O)[C@H](OC(=O)C(F)CCCN(C)C)[C@@H](NC(=O)OC(C)(C)C)c4ccccc4)C[C@@](O)([C@@H](OC(=O)c4ccccc4)[C@H]21)C3(C)C.CS(=O)(=O)O (stereo partly drawn) [Compound 28, 2′-O-[5-(N,N-dimethyl)amino-2(R,S)-fluorovaleryl]docetaxel methanesulfonate]
- Tumor volume (mm^3) (D0) [4]: 118.2 ± 4.8 mm^3
- Weight change (%) D6 [4]: −15.4%
- T/C (%) D20 [4]: −28%
- Tumor volume (mm^3) (D20) [4]: 41.5 ± 14.7 mm^3
- Tumor inhibitory percent (%) D20 [4]: 64%

Compound: CCN(CC)CC[C@@H](F)C(=O)O[C@@H](C(=O)O[C@H]1C[C@@]2(O)[C@@H](OC(=O)c3ccccc3)[C@@H]3[C@]4(OC(C)=O)CO[C@@H]4C[C@H](OC)[C@@]3(C)C(=O)[C@H](OC)C(=C1C)C2(C)C)[C@@H](NC(=O)OC(C)(C)C)c1ccccc1.CS(=O)(=O)O [Compound 31, 2′-O-[4-(N,N-diethyl)amino-2(R)-fluorobutyryl]cabazitaxel methanesulfonate]
- T/C (%) D20 [2, 5]: −50%

Compound: CC(=O)O[C@@]12CO[C@@H]1C[C@H](O)[C@@]1(C)C(=O)[C@H](O)C3=C(C)[C@@H](OC(=O)[C@H](OC(=O)[C@@H](CCN(C)C)C(F)(F)F)[C@@H](NC(=O)OC(C)(C)C)c4ccccc4)C[C@@](O)([C@@H](OC(=O)c4ccccc4)[C@H]21)C3(C)C.CS(=O)(=O)O [Compound 26, 2′-O-[4-(N,N-dimethyl)amino-2(R)-2-trifluoromethylbutyryl] docetaxel methanesulfonate]
- T/C (%) D20 [4]: −46%
